Legend:
Type in all cases: biochemical
PI3Kγ = PI3Kγ (Homo sapiens (Human), UniProt P48736); experiment: TR-FRET enzymatic assay of PI3K isoforms (PI3Kγ); conditions: TR-FRET, 2×Km ATP, 2 μM PIP2, PI3Kγ at 2 nM, incubated for 30 minutes at 25° C.; read-out: γ IC50
Method: (§1) The compounds of formula (I) were characterized for their enzymatic activity against the PI3K isoforms. Certain compounds of the present application, including certain compounds of formula (II) and (III) were also characterized for their enzymatic activity against PI3K isoforms. The activities were measured using a time-resolved fluorescence resonance energy transfer (TR-FRET) assay.

PI3Kδ = PI3Kδ (Homo sapiens (Human), UniProt O00329); experiment: TR-FRET enzymatic assay of PI3K isoforms (PI3Kδ); conditions: 2×Km ATP, 2 μM PIP2, incubated for 30 minutes at 25° C., read-out: δ IC50
Method: as §1

PI3Kβ = PI3Kβ (Homo sapiens (Human), UniProt P42338); experiment: TR-FRET enzymatic assay of PI3K isoforms (PI3Kβ); conditions: TR-FRET, 2×Km ATP, 2 μM PIP2, incubated for 30 minutes at 25° C.; read-out: β IC50
Method: as §1

Chain of PI3Kβ (P42338 whole entry, canonical isoform): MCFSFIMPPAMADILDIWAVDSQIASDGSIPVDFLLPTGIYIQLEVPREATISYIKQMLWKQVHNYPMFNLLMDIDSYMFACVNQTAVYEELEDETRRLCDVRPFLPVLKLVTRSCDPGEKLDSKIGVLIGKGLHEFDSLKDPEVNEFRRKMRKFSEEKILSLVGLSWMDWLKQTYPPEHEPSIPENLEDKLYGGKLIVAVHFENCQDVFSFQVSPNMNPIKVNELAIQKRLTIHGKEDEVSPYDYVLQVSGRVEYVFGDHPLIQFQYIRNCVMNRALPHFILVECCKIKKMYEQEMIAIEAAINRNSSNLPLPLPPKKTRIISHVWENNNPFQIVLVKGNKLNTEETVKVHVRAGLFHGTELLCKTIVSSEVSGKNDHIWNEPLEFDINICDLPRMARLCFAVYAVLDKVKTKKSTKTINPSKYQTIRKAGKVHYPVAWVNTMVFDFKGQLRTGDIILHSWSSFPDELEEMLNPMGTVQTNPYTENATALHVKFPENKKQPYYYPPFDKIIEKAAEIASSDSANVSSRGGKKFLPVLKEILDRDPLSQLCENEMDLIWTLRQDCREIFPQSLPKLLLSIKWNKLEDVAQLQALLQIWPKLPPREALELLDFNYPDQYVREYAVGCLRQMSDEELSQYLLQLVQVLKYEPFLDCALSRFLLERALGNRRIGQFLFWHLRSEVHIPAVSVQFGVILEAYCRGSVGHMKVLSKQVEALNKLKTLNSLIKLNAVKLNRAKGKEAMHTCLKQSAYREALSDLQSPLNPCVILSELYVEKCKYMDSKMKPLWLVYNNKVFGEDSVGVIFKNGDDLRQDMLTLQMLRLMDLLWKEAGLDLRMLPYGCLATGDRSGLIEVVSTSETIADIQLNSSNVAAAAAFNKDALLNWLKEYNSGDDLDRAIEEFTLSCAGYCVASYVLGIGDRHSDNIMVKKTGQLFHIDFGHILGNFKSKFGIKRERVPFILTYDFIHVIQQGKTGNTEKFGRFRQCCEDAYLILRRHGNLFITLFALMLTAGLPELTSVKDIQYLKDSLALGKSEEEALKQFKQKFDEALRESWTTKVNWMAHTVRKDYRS
Chain of PI3Kβ (P27986 whole entry partner, canonical isoform): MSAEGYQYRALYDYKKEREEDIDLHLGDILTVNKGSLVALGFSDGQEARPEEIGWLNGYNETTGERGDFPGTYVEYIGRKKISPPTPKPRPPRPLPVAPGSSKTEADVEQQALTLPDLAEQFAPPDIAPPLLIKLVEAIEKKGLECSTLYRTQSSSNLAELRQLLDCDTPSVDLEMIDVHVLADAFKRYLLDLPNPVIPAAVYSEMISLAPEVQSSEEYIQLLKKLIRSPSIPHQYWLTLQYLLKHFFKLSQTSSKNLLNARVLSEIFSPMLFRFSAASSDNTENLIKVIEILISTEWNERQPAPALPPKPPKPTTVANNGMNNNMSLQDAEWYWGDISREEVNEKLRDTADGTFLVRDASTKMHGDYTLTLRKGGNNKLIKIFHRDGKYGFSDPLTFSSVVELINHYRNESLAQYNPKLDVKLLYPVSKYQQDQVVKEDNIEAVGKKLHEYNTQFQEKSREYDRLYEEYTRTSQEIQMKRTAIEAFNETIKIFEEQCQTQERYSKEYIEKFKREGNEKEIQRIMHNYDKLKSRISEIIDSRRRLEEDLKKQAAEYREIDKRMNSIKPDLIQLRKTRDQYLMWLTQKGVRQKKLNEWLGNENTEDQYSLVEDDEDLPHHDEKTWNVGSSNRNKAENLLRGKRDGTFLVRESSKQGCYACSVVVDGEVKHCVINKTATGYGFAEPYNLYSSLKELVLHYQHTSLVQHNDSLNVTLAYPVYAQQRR
Chain of PI3Kδ (O00329 whole entry, canonical isoform): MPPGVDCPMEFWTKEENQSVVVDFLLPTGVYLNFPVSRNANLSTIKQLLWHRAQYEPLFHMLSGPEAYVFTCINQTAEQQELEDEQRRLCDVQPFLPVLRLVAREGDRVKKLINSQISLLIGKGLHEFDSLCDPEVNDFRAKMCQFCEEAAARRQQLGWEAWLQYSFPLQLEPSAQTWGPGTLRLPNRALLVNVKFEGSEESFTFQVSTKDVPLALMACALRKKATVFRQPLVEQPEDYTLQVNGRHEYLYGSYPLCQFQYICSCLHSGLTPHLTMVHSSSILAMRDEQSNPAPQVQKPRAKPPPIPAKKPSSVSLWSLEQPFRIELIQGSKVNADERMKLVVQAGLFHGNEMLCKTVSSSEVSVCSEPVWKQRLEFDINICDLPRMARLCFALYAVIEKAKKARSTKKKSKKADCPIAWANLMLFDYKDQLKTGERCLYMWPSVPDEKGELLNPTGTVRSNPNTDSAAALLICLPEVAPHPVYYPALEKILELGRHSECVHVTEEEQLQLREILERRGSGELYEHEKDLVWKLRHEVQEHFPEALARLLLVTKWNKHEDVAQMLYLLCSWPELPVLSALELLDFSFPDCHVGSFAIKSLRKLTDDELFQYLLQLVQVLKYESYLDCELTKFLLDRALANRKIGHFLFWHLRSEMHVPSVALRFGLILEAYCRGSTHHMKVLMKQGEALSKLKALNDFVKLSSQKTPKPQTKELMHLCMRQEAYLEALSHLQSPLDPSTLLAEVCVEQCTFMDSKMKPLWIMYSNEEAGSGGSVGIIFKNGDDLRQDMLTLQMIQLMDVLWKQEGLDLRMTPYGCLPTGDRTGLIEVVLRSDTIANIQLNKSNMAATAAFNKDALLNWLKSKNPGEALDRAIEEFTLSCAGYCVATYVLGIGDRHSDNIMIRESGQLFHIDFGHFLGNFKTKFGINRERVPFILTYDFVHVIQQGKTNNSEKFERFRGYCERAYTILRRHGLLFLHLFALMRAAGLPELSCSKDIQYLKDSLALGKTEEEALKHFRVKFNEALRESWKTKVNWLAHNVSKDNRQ
Chain of PI3Kδ (P27986 whole entry partner, canonical isoform): as the sequence (P27986 whole entry partner, canonical isoform) above
Chain of PI3Kγ (P48736 whole entry, canonical isoform): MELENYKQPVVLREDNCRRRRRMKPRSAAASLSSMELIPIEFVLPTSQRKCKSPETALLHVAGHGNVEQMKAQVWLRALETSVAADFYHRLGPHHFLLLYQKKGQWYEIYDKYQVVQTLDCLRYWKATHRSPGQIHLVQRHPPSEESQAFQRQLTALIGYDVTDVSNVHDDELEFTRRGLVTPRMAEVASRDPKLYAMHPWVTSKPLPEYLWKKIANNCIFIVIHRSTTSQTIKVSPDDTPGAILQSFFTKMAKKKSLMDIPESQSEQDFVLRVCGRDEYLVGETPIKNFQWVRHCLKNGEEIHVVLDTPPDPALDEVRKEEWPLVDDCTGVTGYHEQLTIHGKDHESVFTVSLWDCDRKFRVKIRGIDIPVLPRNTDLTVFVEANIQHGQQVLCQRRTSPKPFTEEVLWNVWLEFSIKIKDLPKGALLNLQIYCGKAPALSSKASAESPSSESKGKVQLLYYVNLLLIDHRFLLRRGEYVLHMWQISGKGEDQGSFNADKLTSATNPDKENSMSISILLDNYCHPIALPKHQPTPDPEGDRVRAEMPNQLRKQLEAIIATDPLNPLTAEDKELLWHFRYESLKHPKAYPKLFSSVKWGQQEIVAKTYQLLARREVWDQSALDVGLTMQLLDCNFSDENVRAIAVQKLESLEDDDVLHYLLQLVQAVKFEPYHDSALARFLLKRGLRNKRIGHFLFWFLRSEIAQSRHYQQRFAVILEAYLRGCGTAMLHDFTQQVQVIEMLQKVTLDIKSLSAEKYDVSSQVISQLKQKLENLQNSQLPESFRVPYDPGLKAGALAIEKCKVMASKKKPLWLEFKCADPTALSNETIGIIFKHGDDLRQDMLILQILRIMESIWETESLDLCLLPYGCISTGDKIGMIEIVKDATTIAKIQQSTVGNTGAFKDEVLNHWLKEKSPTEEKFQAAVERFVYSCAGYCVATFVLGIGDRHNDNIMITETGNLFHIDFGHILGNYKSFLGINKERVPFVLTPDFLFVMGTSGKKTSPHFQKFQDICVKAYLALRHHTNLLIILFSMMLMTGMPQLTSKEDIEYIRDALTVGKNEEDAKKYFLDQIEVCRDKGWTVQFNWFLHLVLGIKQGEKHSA
Chain of PI3Kγ (Q8WYR1 whole entry partner, canonical isoform): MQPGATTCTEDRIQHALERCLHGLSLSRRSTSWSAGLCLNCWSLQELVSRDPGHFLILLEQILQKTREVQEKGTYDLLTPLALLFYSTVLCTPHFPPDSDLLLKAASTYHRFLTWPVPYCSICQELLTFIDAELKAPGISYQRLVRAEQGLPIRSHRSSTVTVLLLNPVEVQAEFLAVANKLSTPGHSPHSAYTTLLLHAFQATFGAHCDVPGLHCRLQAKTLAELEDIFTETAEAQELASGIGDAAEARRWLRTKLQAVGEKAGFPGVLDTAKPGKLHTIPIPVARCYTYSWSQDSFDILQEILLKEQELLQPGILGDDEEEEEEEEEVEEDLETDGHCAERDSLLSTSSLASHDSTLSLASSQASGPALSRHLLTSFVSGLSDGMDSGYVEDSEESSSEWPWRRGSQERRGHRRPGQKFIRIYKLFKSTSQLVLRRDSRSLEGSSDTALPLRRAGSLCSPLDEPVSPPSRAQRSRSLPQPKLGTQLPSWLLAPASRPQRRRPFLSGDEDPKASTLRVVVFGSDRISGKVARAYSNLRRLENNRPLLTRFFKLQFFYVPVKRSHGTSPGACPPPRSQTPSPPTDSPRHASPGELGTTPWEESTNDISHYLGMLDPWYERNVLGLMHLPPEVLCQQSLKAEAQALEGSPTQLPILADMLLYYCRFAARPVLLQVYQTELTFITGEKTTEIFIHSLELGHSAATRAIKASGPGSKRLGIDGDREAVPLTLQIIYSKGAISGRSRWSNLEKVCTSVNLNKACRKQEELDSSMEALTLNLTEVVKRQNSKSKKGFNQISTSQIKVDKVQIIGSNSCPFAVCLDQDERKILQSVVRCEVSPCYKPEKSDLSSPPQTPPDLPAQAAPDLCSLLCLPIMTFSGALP

Compound	IC50 (PI3Kγ) [µM]	IC50 (PI3Kδ) [µM]	IC50 (PI3Kβ) [µM]
CCNC(=O)Nc1cccc(-n2c([C@H](C)Oc3ncnc(N)c3C#N)nc3cccc(Cl)c3c2=O)c1 [Compound 70, (S)-1-(3-(2-(1-((6-amino-5-cyanopyrimidin-4-yl)oxy)ethyl)-5-chloro-4-oxoquinazolin-3(4H)-yl)phenyl)-3-ethylurea]	1.5	0.002	0.012
CCNC(=O)Nc1cccc(-n2c([C@H](C)Nc3ncnc4scnc34)nc3cccc(Cl)c3c2=O)c1 [Compound 72, (S)-1-(3-(5-chloro-4-oxo-2-(1-(thiazolo[5,4-d]pyrimidin-7-ylamino)ethyl)quinazolin-3(4H)-yl)phenyl)-3-ethylurea]	1.3	0.005	0.004
CCNC(=O)Nc1cccc(-n2c([C@@H]3C[C@H](F)CN3c3ncnc(N)c3C#N)nc3cccc(Cl)c3c2=O)c1 [Compound 73, 1-(3-(2-((2S,4S)-1-(6-amino-5-cyanopyrimidin-4-yl)-4-fluoropyrrolidin-2-yl)-5-chloro-4-oxoquinazolin-3(4H)-yl)phenyl)-3-ethylurea]	5.6	0.017	0.038
C[C@H](Nc1ncnc(N)c1C#N)c1nc2cccc(Cl)c2c(=O)n1-c1cccc(NC(=O)NC2(C(F)(F)F)CC2)c1 [Compound 75, (S)-1-(3-(2-(1-((6-amino-5-cyanopyrimidin-4-yl)amino)ethyl)-5-chloro-4-oxoquinazolin-3(4H)-yl)phenyl)-3-(1-(trifluoromethyl)cyclopropyl)urea]	> 10	0.009	0.01
C[C@H](Nc1ncnc(N)c1C#N)c1nc2cccc(Cl)c2c(=O)n1-c1cccc(NC(=O)NCC(F)(F)F)c1 [Compound 76, (S)-1-(3-(2-(1-((6-amino-5-cyanopyrimidin-4-yl)amino)ethyl)-5-chloro-4-oxoquinazolin-3(4H)-yl)phenyl)-3-(2,2,2-trifluoroethyl)urea]	4.4	0.007	0.005
CC(C)NC(=O)Nc1cc(-n2c([C@H](C)Nc3ncnc(N)c3C#N)nc3cccc(Cl)c3c2=O)ccc1F [Compound 77, (S)-1-(5-(2-(1-((6-amino-5-cyanopyrimidin-4-yl)amino)ethyl)-5-chloro-4-oxoquinazolin-3(4H)-yl)-2-fluorophenyl)-3-isopropylurea]	9.5	0.027	0.42
CCNC(=O)Nc1cc(-n2c([C@H](C)Nc3ncnc(N)c3C#N)nc3cccc(Cl)c3c2=O)ccc1F [Compound 78, (S)-1-(5-(2-(1-((6-amino-5-cyanopyrimidin-4-yl)amino)ethyl)-5-chloro-4-oxoquinazolin-3(4H)-yl)-2-fluorophenyl)-3-ethylurea]	4.9	0.032	0.016
C[C@H](Nc1ncnc(N)c1C#N)c1nc2cccc(Cl)c2c(=O)n1-c1cccc(NC(=O)NS(=O)(=O)C2CCCC2)c1 [Compound 79, (S)—N-((3-(2-(1-((6-amino-5-cyanopyrimidin-4-yl)amino)ethyl)-5-chloro-4-oxoquinazolin-3(4H)-yl)phenyl)carbamoyl)cyclopentanesulfonamide]	0.68	0.002	0.071
C[C@H](Nc1ncnc2scnc12)c1nc2cccc(Cl)c2c(=O)n1-c1cccc(NC(=O)NS(=O)(=O)C2CCCC2)c1 [Compound 80, (S)—N-((3-(5-chloro-4-oxo-2-(1-(thiazolo[5,4-d]pyrimidin-7-ylamino)ethyl)quinazolin-3(4H)-yl)phenyl)carbamoyl)cyclopentanesulfonamide]	0.25	0.0009	0.12
C[C@H](Nc1ncnc(N)c1C#N)c1nc2cccc(Cl)c2c(=O)n1-c1cccc(NC(=O)NS(=O)(=O)C2CC2)c1 [Compound 81, (S)—N-((3-(2-(1-((6-amino-5-cyanopyrimidin-4-yl)amino)ethyl)-5-chloro-4-oxoquinazolin-3(4H)-yl)phenyl)carbamoyl)cyclopropanesulfonamide]	2.8	0.002	0.35
N#Cc1c(N)ncnc1N1CCC[C@H]1c1nc2cccc(Cl)c2c(=O)n1-c1cccc(NC(=O)NCC2OCCO2)c1 [Compound 82, (S)-1-((1,3-dioxolan-2-yl)methyl)-3-(3-(2-(1-(6-amino-5-cyanopyrimidin-4-yl)pyrrolidin-2-yl)-5-chloro-4-oxoquinazolin-3(4H)-yl)phenyl)urea]	8.6	0.016	0.029
CCNC(=O)Nc1cccc(-n2c([C@@H]3CCCN3c3ncnc(N)c3C#N)nc3cccc(Cl)c3c2=O)c1 [Compound 83, (S)-1-(3-(2-(1-(6-amino-5-cyanopyrimidin-4-yl)pyrrolidin-2-yl)-5-chloro-4-oxoquinazolin-3(4H)-yl)phenyl)-3-ethylurea]	3.3	0.009	0.013
C[C@H](Nc1ncnc2[nH]cnc12)c1nc2cccc(Cl)c2c(=O)n1-c1cccc(NC(N)=O)c1 [Compound 86, (S)-1-(3-(2-(1-((9H-purin-6-yl)amino)ethyl)-5-chloro-4-oxoquinazolin-3(4H)-yl)phenyl)urea]	4.3	0.019	0.022
CNC(=O)Nc1cccc(-n2c([C@H](C)Nc3ncnc4[nH]cnc34)nc3cccc(Cl)c3c2=O)c1 [Compound 87, (S)-1-(3-(2-(1-((9H-purin-6-yl)amino)ethyl)-5-chloro-4-oxoquinazolin-3(4H)-yl)phenyl)-3-methylurea]	4.5	0.033	0.021
C[C@H](Nc1ncnc(N)c1C#N)c1nc2cccc(Cl)c2c(=O)n1-c1cccc(NC(N)=O)c1 [Compound 88, (S)-1-(3-(2-(1-((6-amino-5-cyanopyrimidin-4-yl)amino)ethyl)-5-chloro-4-oxoquinazolin-3(4H)-yl)phenyl)urea]	2.7	0.002	0.004
CNC(=O)Nc1cccc(-n2c([C@H](C)Nc3ncnc(N)c3C#N)nc3cccc(Cl)c3c2=O)c1 [Compound 89, (S)-1-(3-(2-(1-((6-amino-5-cyanopyrimidin-4-yl)amino)ethyl)-5-chloro-4-oxoquinazolin-3(4H)-yl)phenyl)-3-methylurea]	4.3	0.006	0.006
CCNC(=O)Nc1cccc(-n2c([C@H](C)Nc3ncnc4[nH]cnc34)nc3cccc(Cl)c3c2=O)c1 [Compound 91, (S)-1-(3-(2-(1-((9H-purin-6-yl)amino)ethyl)-5-chloro-4-oxoquinazolin-3(4H)-yl)phenyl)-3-ethylurea]	1.4	0.019	0.032
CCNC(=O)Nc1cccc(-n2c([C@H](C)Nc3ncnc(N)c3C#Cc3ccccn3)nc3cccc(Cl)c3c2=O)c1 [Compound 92]	1.6	0.001	0.016
CCNC(=O)Nc1cccc(-n2c([C@H](C)Nc3nc(C)nc(N)n3)nc3cccc(Cl)c3c2=O)c1 [Compound 93, (S)-1-(3-(2-(1-((4-amino-6-methyl-1,3,5-triazin-2-yl)amino)ethyl)-5-chloro-4-oxoquinazolin-3(4H)-yl)phenyl)-3-ethylurea]	3.7	0.11	0.07
C[C@H](Nc1ncnc(N)c1C#N)c1nc2cccc(Cl)c2c(=O)n1-c1cccc(NC(=O)Nc2ccccc2C(=O)O)c1 [Compound 96, (S)-2-(3-(3-(2-(1-((6-amino-5-cyanopyrimidin-4-yl)amino)ethyl)-5-chloro-4-oxoquinazolin-3(4H)-yl)phenyl)ureido)benzoic acid]	2.6	0.005	0.23
C[C@H](Nc1ncnc(N)c1C#N)c1nc2cccc(Cl)c2c(=O)n1-c1cccc(NC(=O)Nc2ccccc2S(=O)(=O)O)c1 [Compound 97, (S)-2-(3-(3-(2-(1-((6-amino-5-cyanopyrimidin-4-yl)amino)ethyl)-5-chloro-4-oxoquinazolin-3(4H)-yl)phenyl)ureido)benzenesulfonic acid]	6	0.005	0.12
C[C@H](Nc1ncnc(N)c1C#N)c1nc2cccc(Cl)c2c(=O)n1-c1cccc(NC(=O)Nc2ccccc2OCC(=O)O)c1 [Compound 98, (S)-2-(2-(3-(3-(2-(1-((6-amino-5-cyanopyrimidin-4-yl)amino)ethyl)-5-chloro-4-oxoquinazolin-3(4H)-yl)phenyl)ureido)phenoxy)acetic acid]	3.3	0.029	0.058
C[C@H](Nc1ncnc(N)c1C#N)c1nc2cccc(Cl)c2c(=O)n1-c1cccc(NC(=O)Nc2ccc(Cl)c(C(F)(F)F)c2)c1 [Compound 99, (S)-1-(3-(2-(1-((6-amino-5-cyanopyrimidin-4-yl)amino)ethyl)-5-chloro-4-oxoquinazolin-3(4H)-yl)phenyl)-3-(4-chloro-3-(trifluoromethyl)phenyl)urea]	1.6	0.019	0.008
C[C@H](Nc1ncnc(N)c1C#N)c1nc2cccc(Cl)c2c(=O)n1-c1cccc(NC(=O)Nc2ccccc2Cl)c1 [Compound 100, (S)-1-(3-(2-(1-((6-amino-5-cyanopyrimidin-4-yl)amino)ethyl)-5-chloro-4-oxoquinazolin-3(4H)-yl)phenyl)-3-(2-chlorophenyl)urea]	1.4	0.003	0.001
C[C@H](Nc1ncnc(N)c1C#N)c1nc2cccc(Cl)c2c(=O)n1-c1cccc(NC(=O)Nc2ccccc2C(F)(F)F)c1 [Compound 101, (S)-1-(3-(2-(1-((6-amino-5-cyanopyrimidin-4-yl)amino)ethyl)-5-chloro-4-oxoquinazolin-3(4H)-yl)phenyl)-3-(2-(trifluoromethyl)phenyl)urea]	2.5	0.013	0.005
